# Reference: PubChem BioAssay (NCI)
#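 Five compound concentrations were applied to cells in 96-well plates for 48 hours; endpoints were derived by simple linear interpolation of the resulting dose-response curve. TGI is the concentration that stops growth completely.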
# Legend:
# Assay in all cases: growth of human tumour cells (NCI), 48 h
# 786-0 renal = test system: 786-0 renal
# A549 NSCLC = test system: A549 NSCLC
# ACHN renal = test system: ACHN renal
# CAKI-1 renal = test system: CAKI-1 renal
# CCRF-CEM leukemia = test system: CCRF-CEM leukemia
# COLO 205 colon = test system: COLO 205 colon
# DLD-1 colon = test system: DLD-1 colon
# DMS 273 small cell lung = test system: DMS 273 small cell lung
# EKVX NSCLC = test system: EKVX NSCLC
# HCC-2998 colon = test system: HCC-2998 colon
# HCT-116 colon = test system: HCT-116 colon
# HCT-15 colon = test system: HCT-15 colon
# HL-60(TB) leukemia = test system: HL-60(TB) leukemia
# HOP-18 NSCLC = test system: HOP-18 NSCLC
# HOP-62 NSCLC = test system: HOP-62 NSCLC
# HOP-92 NSCLC = test system: HOP-92 NSCLC
# HT29 colon = test system: HT29 colon
# IGROV1 ovarian = test system: IGROV1 ovarian
# K-562 leukemia = test system: K-562 leukemia
# KM12 colon = test system: KM12 colon
# KM20L2 colon = test system: KM20L2 colon
# LOX IMVI melanoma = test system: LOX IMVI melanoma
# LXFL 529 NSCLC = test system: LXFL 529 NSCLC
# M14 melanoma = test system: M14 melanoma
# MALME-3M melanoma = test system: MALME-3M melanoma
# MOLT-4 leukemia = test system: MOLT-4 leukemia
# NCI-H226 lung = test system: NCI-H226 lung
# NCI-H23 lung = test system: NCI-H23 lung
# NCI-H460 lung = test system: NCI-H460 lung
# NCI-H522 lung = test system: NCI-H522 lung
# OVCAR-3 ovarian = test system: OVCAR-3 ovarian
# OVCAR-4 ovarian = test system: OVCAR-4 ovarian
# OVCAR-8 ovarian = test system: OVCAR-8 ovarian
# RPMI-8226 leukemia = test system: RPMI-8226 leukemia
# RXF 393 renal = test system: RXF 393 renal
# SF-268 CNS = test system: SF-268 CNS
# SF-295 CNS = test system: SF-295 CNS
# SF-539 CNS = test system: SF-539 CNS
# SK-MEL-2 melanoma = test system: SK-MEL-2 melanoma
# SK-MEL-28 melanoma = test system: SK-MEL-28 melanoma
# SK-MEL-5 melanoma = test system: SK-MEL-5 melanoma
# SK-OV-3 ovarian = test system: SK-OV-3 ovarian
# SN12C renal = test system: SN12C renal
# SNB-19 CNS = test system: SNB-19 CNS
# SNB-78 CNS = test system: SNB-78 CNS
# SR leukemia = test system: SR leukemia
# SW-620 colon = test system: SW-620 colon
# TK-10 renal = test system: TK-10 renal
# U251 CNS = test system: U251 CNS
# UACC-62 melanoma = test system: UACC-62 melanoma
# UO-31 renal = test system: UO-31 renal
# XF 498 CNS = test system: XF 498 CNS
# A498 renal = test system: A498 renal
# DMS 114 small cell lung = test system: DMS 114 small cell lung
# M19-MEL melanoma = test system: M19-MEL melanoma
# OVCAR-5 ovarian = test system: OVCAR-5 ovarian
# SNB-75 CNS = test system: SNB-75 CNS
# UACC-257 melanoma = test system: UACC-257 melanoma
smiles,measurement,setting,value
O=c1c2c([nH]c3cc4c(cc13)OCO4)-c1ccccc1C2,TGI,786-0 renal,> 100 µM
same,TGI,A549 NSCLC,> 100 µM
same,TGI,ACHN renal,53.8 µM
same,TGI,CAKI-1 renal,> 100 µM
same,TGI,CCRF-CEM leukemia,71.4 µM
same,TGI,COLO 205 colon,31.5 µM
same,TGI,DLD-1 colon,58.7 µM
same,TGI,DMS 273 small cell lung,42.3 µM
same,TGI,EKVX NSCLC,> 100 µM
same,TGI,HCC-2998 colon,84.1 µM
same,TGI,HCT-116 colon,37.4 µM
same,TGI,HCT-15 colon,> 100 µM
same,TGI,HL-60(TB) leukemia,70.1 µM
same,TGI,HOP-18 NSCLC,68.1 µM
same,TGI,HOP-62 NSCLC,52.4 µM
same,TGI,HOP-92 NSCLC,56.3 µM
same,TGI,HT29 colon,33 µM
same,TGI,IGROV1 ovarian,49.7 µM
same,TGI,K-562 leukemia,> 100 µM
same,TGI,KM12 colon,42.8 µM
same,TGI,KM20L2 colon,36.7 µM
same,TGI,LOX IMVI melanoma,31.7 µM
same,TGI,LXFL 529 NSCLC,63.7 µM
same,TGI,M14 melanoma,46.5 µM
same,TGI,MALME-3M melanoma,62.9 µM
same,TGI,MOLT-4 leukemia,82 µM
same,TGI,NCI-H226 lung,86.7 µM
same,TGI,NCI-H23 lung,67.5 µM
same,TGI,NCI-H460 lung,63.9 µM
same,TGI,NCI-H522 lung,55.5 µM
same,TGI,OVCAR-3 ovarian,51.6 µM
same,TGI,OVCAR-4 ovarian,> 100 µM
same,TGI,OVCAR-8 ovarian,> 100 µM
same,TGI,RPMI-8226 leukemia,48.2 µM
same,TGI,RXF 393 renal,34.2 µM
same,TGI,SF-268 CNS,> 100 µM
same,TGI,SF-295 CNS,84.8 µM
same,TGI,SF-539 CNS,34.7 µM
same,TGI,SK-MEL-2 melanoma,28.9 µM
same,TGI,SK-MEL-28 melanoma,59.9 µM
same,TGI,SK-MEL-5 melanoma,29.6 µM
same,TGI,SK-OV-3 ovarian,> 100 µM
same,TGI,SN12C renal,84.6 µM
same,TGI,SNB-19 CNS,> 100 µM
same,TGI,SNB-78 CNS,> 100 µM
same,TGI,SR leukemia,56.1 µM
same,TGI,SW-620 colon,> 100 µM
same,TGI,TK-10 renal,78.5 µM
same,TGI,U251 CNS,35.6 µM
same,TGI,UACC-62 melanoma,32.3 µM
same,TGI,UO-31 renal,86.1 µM
same,TGI,XF 498 CNS,49.4 µM
CC(C)(C)c1ccc2c(c1)C(O)(c1ccccc1)c1cc(C(C)(C)C)ccc1C2(O)C(F)(F)F (configuration not stated),TGI,786-0 renal,3.77 µM
same,TGI,A498 renal,3.25 µM
same,TGI,A549 NSCLC,3.7 µM
same,TGI,ACHN renal,5.77 µM
same,TGI,CAKI-1 renal,4.73 µM
same,TGI,CCRF-CEM leukemia,5.57 µM
same,TGI,COLO 205 colon,3.27 µM
same,TGI,DLD-1 colon,4.15 µM
same,TGI,DMS 114 small cell lung,5.21 µM
same,TGI,DMS 273 small cell lung,3.55 µM
same,TGI,EKVX NSCLC,9.85 µM
same,TGI,HCC-2998 colon,3.66 µM
same,TGI,HCT-116 colon,3.37 µM
same,TGI,HCT-15 colon,3.83 µM
same,TGI,HL-60(TB) leukemia,5.15 µM
same,TGI,HOP-18 NSCLC,5.06 µM
same,TGI,HOP-62 NSCLC,2.94 µM
same,TGI,HOP-92 NSCLC,3.79 µM
same,TGI,HT29 colon,2.99 µM
same,TGI,IGROV1 ovarian,4.94 µM
same,TGI,K-562 leukemia,5.62 µM
same,TGI,KM12 colon,4.87 µM
same,TGI,KM20L2 colon,3.05 µM
same,TGI,LOX IMVI melanoma,3.32 µM
same,TGI,LXFL 529 NSCLC,4.39 µM
same,TGI,M14 melanoma,3.59 µM
same,TGI,M19-MEL melanoma,3.7 µM
same,TGI,MALME-3M melanoma,5.56 µM
same,TGI,MOLT-4 leukemia,4.71 µM
same,TGI,NCI-H226 lung,2.35 µM
same,TGI,NCI-H23 lung,4.39 µM
same,TGI,NCI-H460 lung,3.5 µM
same,TGI,NCI-H522 lung,3.45 µM
same,TGI,OVCAR-3 ovarian,4.29 µM
same,TGI,OVCAR-4 ovarian,3.7 µM
same,TGI,OVCAR-5 ovarian,3.05 µM
same,TGI,OVCAR-8 ovarian,4.29 µM
same,TGI,RXF 393 renal,3.87 µM
same,TGI,SF-268 CNS,4.48 µM
same,TGI,SF-295 CNS,2.88 µM
same,TGI,SF-539 CNS,3.41 µM
same,TGI,SK-MEL-2 melanoma,3.63 µM
same,TGI,SK-MEL-28 melanoma,4.54 µM
same,TGI,SK-OV-3 ovarian,8.57 µM
same,TGI,SN12C renal,3.14 µM
same,TGI,SNB-19 CNS,6.32 µM
same,TGI,SNB-75 CNS,5.48 µM
same,TGI,SR leukemia,5.12 µM
same,TGI,SW-620 colon,4.23 µM
same,TGI,TK-10 renal,11.4 µM
same,TGI,U251 CNS,3.31 µM
same,TGI,UACC-257 melanoma,4.85 µM
same,TGI,UACC-62 melanoma,3.66 µM
same,TGI,UO-31 renal,4.58 µM
same,TGI,XF 498 CNS,2.9 µM
COS(=O)(=O)OCCC(NC(=O)OCc1ccccc1)C(=O)OCc1ccccc1 (configuration not stated),TGI,786-0 renal,> 100 µM
same,TGI,A498 renal,> 100 µM
same,TGI,A549 NSCLC,> 100 µM
same,TGI,ACHN renal,> 100 µM
same,TGI,CAKI-1 renal,> 100 µM
same,TGI,CCRF-CEM leukemia,> 100 µM
same,TGI,COLO 205 colon,> 100 µM
same,TGI,DLD-1 colon,> 100 µM
same,TGI,DMS 114 small cell lung,> 100 µM
same,TGI,DMS 273 small cell lung,> 100 µM
same,TGI,EKVX NSCLC,> 100 µM
same,TGI,HCC-2998 colon,> 100 µM
same,TGI,HCT-116 colon,> 100 µM
same,TGI,HCT-15 colon,> 100 µM
same,TGI,HL-60(TB) leukemia,> 100 µM
same,TGI,HOP-18 NSCLC,> 100 µM
same,TGI,HOP-62 NSCLC,> 100 µM
same,TGI,HOP-92 NSCLC,> 100 µM
same,TGI,HT29 colon,> 100 µM
same,TGI,IGROV1 ovarian,> 100 µM
same,TGI,K-562 leukemia,> 100 µM
same,TGI,KM12 colon,> 100 µM
same,TGI,KM20L2 colon,> 100 µM
same,TGI,LOX IMVI melanoma,> 100 µM
same,TGI,LXFL 529 NSCLC,> 100 µM
same,TGI,M14 melanoma,> 100 µM
same,TGI,M19-MEL melanoma,> 100 µM
same,TGI,MALME-3M melanoma,> 100 µM
same,TGI,MOLT-4 leukemia,> 100 µM
same,TGI,NCI-H226 lung,> 100 µM
same,TGI,NCI-H23 lung,> 100 µM
same,TGI,NCI-H460 lung,> 100 µM
same,TGI,NCI-H522 lung,> 100 µM
same,TGI,OVCAR-3 ovarian,> 100 µM
same,TGI,OVCAR-4 ovarian,> 100 µM
same,TGI,OVCAR-5 ovarian,> 100 µM
same,TGI,OVCAR-8 ovarian,> 100 µM
same,TGI,RPMI-8226 leukemia,> 100 µM
same,TGI,SF-268 CNS,> 100 µM
same,TGI,SF-295 CNS,> 100 µM
same,TGI,SF-539 CNS,> 100 µM
same,TGI,SK-MEL-2 melanoma,> 100 µM
same,TGI,SK-MEL-28 melanoma,> 100 µM
same,TGI,SK-MEL-5 melanoma,> 100 µM
same,TGI,SK-OV-3 ovarian,> 100 µM
same,TGI,SN12C renal,> 100 µM
same,TGI,SNB-19 CNS,> 100 µM
same,TGI,SNB-75 CNS,> 100 µM
same,TGI,SNB-78 CNS,> 100 µM
same,TGI,SW-620 colon,> 100 µM
same,TGI,TK-10 renal,> 100 µM
same,TGI,U251 CNS,> 100 µM
same,TGI,UACC-257 melanoma,> 100 µM
same,TGI,UACC-62 melanoma,> 100 µM
same,TGI,UO-31 renal,> 100 µM
